{"source": "patent US8633201B2", "about": "“Thienopyrimidines having Mnk1/Mnk2 inhibiting activity for pharmaceutical compositions” (Boehringer Ingelheim International GmbH, priority 2006, dated 2014)", "key": {"[1]": {"tested_on": "cell culture cells, transfected with Mnk2 (Mnk2a or Mnk2b) or Mnk1", "details": "addition to cell culture cells transfected with Mnk2 (Mnk2a or Mnk2b) or Mnk1; cited from earlier work"}, "[2]": {"tested_on": "db/db mice", "test": "14-day oral treatment study in db/db mice (body weight, blood glucose, plasma and pancreas parameters)", "assay_type": "in vivo", "details": "oral gavage", "description": "BKS.Cg-m+/+Lepr^db/J (Charles River Laboratories) male mice (commonly referred to as db/db mice) are deficient in the […] due a spontaneous point mutation. They are maintained on the C57BL6/J strain.\nMice are housed four by cage at a temperature of 22-24° C. and a day/night cycle of […] (05:00-19:00-05:00), and obtain standard chow and tap water ad libitum. Mice are allowed to adapt to housing and environment for 14 days prior to substance administration.\nCompound suspensions in 0.3% Methylcellulose in saline are prepared freshly just prior to administration.\nSubstances will be administered by oral gavage in the morning at 07:00, one hour before determining fed blood glucose levels and body weight. In the evening, substance is administered between 17:00 and 18:00. Animals are visually monitored for 1 hour after the administrations.\nDosing is chosen based on the results of pharmacokinetic (PK) and dose tolerability studies. […]\nAnimals are being supplied one week in advance to allow for adaptation to housing and environment. During that time, body weight and fed blood glucose are measured daily. […]\nBodyweight and bloodglucose were measured three times a week. At the end of the study pancreatic insulin content and plasma parameters were determined."}}}
{"smiles": "Nc1ncnc2n[nH]c(Nc3ccc(F)cc3)c12", "note": "[CGP57380]", "values": [{"measurement": "phosphorylated eIF4E", "setting": "[1]", "value": "strong reduction"}]}
{"smiles": "NC(=O)c1ccc(Nc2ncnc3ccsc23)c(OC2CCOC2)c1", "note": "(stereo not drawn) [Compound 15, 3-(Tetrahydrofuran-3-yloxy)-4-(thieno[3,2-d]pyrimidin-4-ylamino)-benzamide]", "values": [{"measurement": "random fed blood glucose", "setting": "[2]; during the 14 day study, FIG. 2", "value": "progressive improvement"}]}
{"smiles": "CN(CCOc1ccc(CC2SC(=O)NC2=O)cc1)c1ccccn1", "note": "(stereo not drawn) [Rosiglitazone]", "values": [{"measurement": "body weight compared to vehicle", "setting": "[2]; d1 to d14, FIG. 1", "value": "significant increased in body weight"}]}
